22 compounds from patent publication US9284333B2, “Fused pyrroledicarboxamides and their use as pharmaceuticals” (SANOFI, priority 2012, dated 2016) can be followed below.

Sequence of Human TASK-1 channels (O14649 whole entry): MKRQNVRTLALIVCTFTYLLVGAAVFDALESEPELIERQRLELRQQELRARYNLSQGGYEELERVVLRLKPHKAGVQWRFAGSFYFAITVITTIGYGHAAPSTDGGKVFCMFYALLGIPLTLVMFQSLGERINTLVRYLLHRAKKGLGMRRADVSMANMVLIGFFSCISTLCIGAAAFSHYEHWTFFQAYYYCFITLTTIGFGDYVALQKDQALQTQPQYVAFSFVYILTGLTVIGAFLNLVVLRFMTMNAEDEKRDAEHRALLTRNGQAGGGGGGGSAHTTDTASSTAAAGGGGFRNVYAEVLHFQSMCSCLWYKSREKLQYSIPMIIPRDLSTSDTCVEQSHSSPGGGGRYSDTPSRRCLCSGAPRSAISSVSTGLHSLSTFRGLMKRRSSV

In the first experiment the target is Human TASK-1 channels (Homo sapiens (Human), UniProt O14649). Description: Determination of the activity on the TASK-1 channel in Xenopus oocytes (two-microelectrode voltage clamp). Format: cell-based. To be noted: compound concentration 5 μM. A digest of the protocol:
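Current during 500 ms pulses to 40 mV from a −90 mV hold was recorded in oocytes expressing human TASK-1 for two days after cRNA injection. Compounds were added cumulatively to the ND96 bath (pH 7.4, room temperature). IC50 came from dose-response fitting of inhibition relative to pre-compound current.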
For `CC[C@@H](NC(=O)c1cc(C(=O)N2CCC[C@@H]2C)n2c1COCC2)c1ccc(SC)nc1` [16ra, 6-((S)-2-Methyl-pyrrolidine-1-carbonyl)-3,4-dihydro-1H-pyrrolo[2,1-c][1,4]oxazine-8-carboxylic acid [(R)-1-(6-methylsulfanyl-pyridin-3-yl)-propyl]-amide], testing at 5 µM gave an inhibition of 60%. Same read-out and setting: with `CC[C@H](NC(=O)c1cc(C(=O)N2CCC[C@@H]2C)n2c1COCC2)c1ccc(F)c(C(F)(F)F)c1` [16bp] the figure was 90%; with `CC[C@@H](NC(=O)c1cc(C(=O)NCc2cccnn2)n2c1COCC2)c1ccccc1` [16jf, 3,4-Dihydro-1H-pyrrolo[2,1-c][1,4]oxazine-6,8-dicarboxylic acid 8-[((R)-1-phenyl-propyl)-amide] 6-[(pyridazin-3-ylmethyl)-amide]], 36%.

Staying with this experiment, now noted: human TASK-1 expressed in Xenopus oocytes, room temperature; read-out: IC50 value for TASK-1 inhibition.
As for “5,6,7,8-Tetrahydro-indolizine-1,3-dicarboxylic acid 3-[(5-fluoro-pyridin-3-ylmethyl)-amide] 1-[((R)-1-phenyl-propyl)-amide] [16nb]”, the concentration for half-maximal inhibition (IC50) (in general, the concentration that inhibits the measured activity by half) is 460 nM.

As to `CC[C@@H](NC(=O)c1cc(C(=O)NCc2ccccc2C#N)n2c1COCC2)c1ccccc1` [16gy, 3,4-Dihydro-1H-pyrrolo[2,1-c][1,4]oxazine-6,8-dicarboxylic acid 6-(2-cyano-benzylamide) 8-[((R)-1-phenyl-propyl)-amide]], the half-maximal inhibitory concentration (IC50) was 320 nM. For `CC[C@@H](NC(=O)c1cc(C(=O)N[C@H](CC)c2cccc(C(=O)O)c2)n2c1COCC2)c1ccccc1` [16rm, 3-((R)-1-{[8-((R)-1-Phenyl-propylcarbamoyl)-3,4-dihydro-1H-pyrrolo[2,1-c][1,4]oxazine-6-carbonyl]-amino}-propyl)-benzoic acid], the concentration for half-maximal inhibition (IC50) came to 4900 nM.

For `CCOC(=O)[C@H]1CCCN1C(=O)c1cc(C(=O)N[C@H](CC)c2ccccc2)c2n1CCOC2` [16ff], the IC50 turned out to be 540 nM.

For `CC[C@@H](NC(=O)c1cc(C(=O)NCc2nccs2)n2c1COCC2)c1ccccc1` [16il, 3,4-Dihydro-1H-pyrrolo[2,1-c][1,4]oxazine-6,8-dicarboxylic acid 8-[((R)-1-phenyl-propyl)-amide] 6-[(thiazol-2-ylmethyl)-amide]], the IC50 was found to be 170 nM. The same measure, in the same setting: with `CC[C@@H](NC(=O)c1cc(C(=O)N(CC)CC)n2c1COCC2)c1ccccc1` [16gn, 3,4-Dihydro-1H-pyrrolo[2,1-c][1,4]oxazine-6,8-dicarboxylic acid 6-diethylamide 8-[((R)-1-phenyl-propyl)-amide]] the figure was 250 nM.

Turning to `CCC(NC(=O)c1cc(C(=O)N2CCC[C@@H]2C)n2c1COCC2)c1ccc(C(C)(F)F)cc1` (stereo partly drawn) [16bc, 6-((S)-2-Methyl-pyrrolidine-1-carbonyl)-3,4-dihydro-1H-pyrrolo[2,1-c][1,4]oxazine-8-carboxylic acid {1-[4-(1,1-difluoro-ethyl)-phenyl]-propyl}-amide], the concentration for half-maximal inhibition (IC50) worked out at 550 nM. Regarding `CC[C@@H](NC(=O)c1cc(C(=O)N[C@H](C)C(C)(C)C)n2c1COCC2)c1ccccc1` [16hr, 3,4-Dihydro-1H-pyrrolo[2,1-c][1,4]oxazine-6,8-dicarboxylic acid 8-[((R)-1-phenyl-propyl)-amide] 6-[((R)-1,2,2-trimethyl-propyl)-amide]], the IC50 turned out to be 190 nM. Turning to `CC[C@H](NC(=O)c1cc(C(=O)N[C@H](CC)c2ccccc2)c2n1CCOC2)c1ccc(OC)nc1` [16hp, 3,4-Dihydro-1H-pyrrolo[2,1-c][1,4]oxazine-6,8-dicarboxylic acid 6-{[(S)-1-(6-methoxy-pyridin-3-yl)-propyl]-amide} 8-[((R)-1-phenyl-propyl)-amide]], the IC50 was found to be 560 nM.

Turning to `C[C@H]1CCCN1C(=O)c1cc(C(=O)NCc2ccc(F)cc2Cl)c2n1CCOC2` [16x, 6-((S)-2-Methyl-pyrrolidine-1-carbonyl)-3,4-dihydro-1H-pyrrolo[2,1-c][1,4]oxazine-8-carboxylic acid 2-chloro-4-fluoro-benzylamide], the IC50 came out at 190 nM. Turning to `CC[C@@H](NC(=O)c1cc(C(=O)N[C@H](CC)c2ncccc2OC)n2c1COCC2)c1ccccc1` [16ia, 3,4-Dihydro-1H-pyrrolo[2,1-c][1,4]oxazine-6,8-dicarboxylic acid 6-{[(R)-1-(3-methoxy-pyridin-2-yl)-propyl]-amide} 8-[((R)-1-phenyl-propyl)-amide]], the IC50 was 120 nM.

Consider `CC[C@@H](NC(=O)c1cc(C(=O)Nc2ccc(F)cn2)n2c1COCC2)c1ccccc1` [16hc, 3,4-Dihydro-1H-pyrrolo[2,1-c][1,4]oxazine-6,8-dicarboxylic acid 6-[(5-fluoro-pyridin-2-yl)-amide] 8-[((R)-1-phenyl-propyl)-amide]], for which the IC50 was 180 nM. As for `CC[C@@H](NC(=O)c1cc(C(=O)N2CCC[C@@H]2C)n2c1COCC2)c1cnc(OC)c(C(F)(F)F)c1` [16cn, 6-((S)-2-Methyl-pyrrolidine-1-carbonyl)-3,4-dihydro-1H-pyrrolo[2,1-c][1,4]oxazine-8-carboxylic acid [(R)-1-(6-methoxy-5-trifluoromethyl-pyridin-3-yl)-propyl]-amide], the IC50 came out at 100 nM. As for `CC[C@@H](NC(=O)c1cc(C(=O)NCC2CCCCC2)n2c1CCCC2)c1ccccc1` [16mp, 5,6,7,8-Tetrahydro-indolizine-1,3-dicarboxylic acid 3-cyclohexylmethyl-amide 1-[((R)-1-phenyl-propyl)-amide]], the IC50 turned out to be 93 nM. Same read-out and setting: with `CC[C@@H](NC(=O)c1cc(C(=O)N[C@H](C)c2ccc(F)cc2)n2c1COCC2)c1ccccc1` [16gl, 3,4-Dihydro-1H-pyrrolo[2,1-c][1,4]oxazine-6,8-dicarboxylic acid 6-{[(R)-1-(4-fluoro-phenyl)-ethyl]-amide} 8-[((R)-1-phenyl-propyl)-amide]] the figure was 42 nM; with `CC[C@@H](NC(=O)c1cc(C(=O)N2[C@@H](COC)CC[C@@H]2COC)n2c1COCC2)c1ccccc1` [16ep, 6-((2R,5R)-2,5-Bis-methoxymethyl-pyrrolidine-1-carbonyl)-3,4-dihydro-1H-pyrrolo[2,1-c][1,4]oxazine-8-carboxylic acid ((R)-1-phenyl-propyl)-amide], 820 nM. In the case of `CC[C@@H](NC(=O)c1cc(C(=O)N2CC[C@H](OC)C2)n2c1COCC2)c1ccc(F)cc1Cl` [16nn, 6-((S)-3-Methoxy-pyrrolidine-1-carbonyl)-3,4-dihydro-1H-pyrrolo[2,1-c][1,4]oxazine-8-carboxylic acid [(R)-1-(2-chloro-4-fluoro-phenyl)-propyl]-amide], the IC50 worked out at 270 nM.

On to `CC[C@@H](NC(=O)c1cc(C(=O)N2CCC[C@@H]2C)n2c1COCC2)c1c(F)cc(C#N)cc1F` [16ba, 6-((S)-2-Methyl-pyrrolidine-1-carbonyl)-3,4-dihydro-1H-pyrrolo[2,1-c][1,4]oxazine-8-carboxylic acid [(R)-1-(4-cyano-2,6-difluoro-phenyl)-propyl]-amide], for which the IC50 was 140 nM. For the compound `CC[C@@H](NC(=O)c1cc(C(=O)N[C@H](C)c2ccc(F)cc2)n2c1SCC2)c1ccccc1` [16kt, 2,3-Dihydro-pyrrolo[2,1-b]thiazole-5,7-dicarboxylic acid 5-{[(R)-1-(4-fluoro-phenyl)-ethyl]-amide} 7-[((R)-1-phenyl-propyl)-amide]], the IC50 worked out at 27 nM.
